Assay results reported in patent publication US20070099915A1, “INHIBITORS OF THE HIV INTEGRASE ENZYME” (PFIZER INC., priority 2005, published 2007).
Read-outs that look alike come from different tables or passages of the source.

How the values were obtained:
[1] = biological target: T1, Full-length wild type HIV-1 integrase (SF1) (Human immunodeficiency virus type 1 group M subtype B, UniProt P04585); assay: Integrase strand-transfer scintillation proximity assay; format: biochemical
T1 construct: made in house; host or cells: E. coli BL21 (DE3)

[2] = system: HIV-1 RF virus in CEM-SS cells; assay: HIV-1 cell protection assay (XTT dye reduction); format: cell-based
Summary of the method: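 Infected CEM-SS cultures incubated six days, then XTT with phenazine methosulfate added for 4 h; viability read as formazan absorbance at 450 nm. Formazan expressed as percent of uninfected, compound-free cells; CC50 from uninfected treated cells, therapeutic index as CC50/EC50.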

HIV-1 = HIV-1 infected patients; S. Little et al., CROI 2005, Abstract 161; cited from earlier work
[3] = strand-transfer SPA, 246 nM integrase, 50 nM host DNA, 37° C., 50 min, read-out: IC50
[4] = Human immunodeficiency virus 1, 144 h, RF strain of HIV-1, CEM-SS cells, XTT read-out after six days, read-out: EC50

Compound | IC50 [1, 3] | EC50 [2, 4] | also measured
O=c1c2ncc3c(c(CO)cn3Cc3ccc(F)cc3)c2ccn1O [Example 26, 3-(4-fluorobenzyl)-7-hydroxy-1-(hydroxymethyl)-3H-pyrrolo[2,3-c][1,7]naphthyridin-6(7H)-one] | 38 nM | 3 nM | –
CN(C1CCCC1)S(=O)(=O)c1cn(Cc2ccc(F)cc2)c2cnc3c(c12)CCN(O)C3=O [Example 21, N-cyclopentyl-3-(4-fluorobenzyl)-7-hydroxy-N-methyl-6-oxo-6,7,8,9-tetrahydro-3H-pyrrolo[2,3-c]-1,7-naphthyridine-1-sulfonamide] | 905 nM | 120 nM | –
O=C1c2ncc3c(c(COCCOCc4ccccc4)cn3Cc3ccc(F)cc3)c2CCN1O [Example 57, 1-{[2-(benzyloxy)ethoxy]methyl}-3-(4-fluorobenzyl)-7-hydroxy-3,7,8,9-tetrahydro-6H-pyrrolo[2,3-c]-1,7-naphthyridin-6-one] | 12 nM | 0.69 nM | –
CN(C)CCc1cn(Cc2ccc(F)cc2)c2cnc3c(c12)CCN(O)C3=O [Example 104, 3-(4-fluorobenzyl)-1-(2-(dimethylamino)ethyl)-7-hydroxy-8,9-dihydro-3H-pyrrolo[2,3-c][1,7]naphthyridin-6(7H)-one] | 24 nM | 32 nM | –
O=C1c2ncc3c(c(C(=O)N4CCCC4)cn3Cc3ccc(F)cc3)c2CCN1O [Example 14, 3-(4-fluorobenzyl)-7-hydroxy-1-(pyrrolidin-1-ylcarbonyl)-3,7,8,9-tetrahydro-6H-pyrrolo[2,3-c]-1,7-naphthyridin-6-one] | 16 nM | – | EC50 ([2]; Human immunodeficiency virus 1, CEM-SS, 144 h): 7 nM
CCCOCCOCc1cn(Cc2ccc(F)cc2)c2cnc3c(c12)CCN(O)C3=O [Example 75, 3-(4-fluorobenzyl)-7-hydroxy-1-[(2-propoxyethoxy)methyl]-3,7,8,9-tetrahydro-6H-pyrrolo[2,3-c]-1,7-naphthyridin-6-one] | 17 nM | 0.7 nM | –
Cc1c(CN2CCOCC2)c2c(ncc3c2ccn3Cc2ccc(F)cc2)c(=O)n1O [Example 44, 3-(4-fluorobenzyl)-7-hydroxy-8-methyl-9-(morpholin-4-ylmethyl)-3,7-dihydro-6H-pyrrolo[2,3-c]-1,7-naphthyridin-6-one] | – | 0.45 nM | IC50 [1]: 9.07 nM
3-(4-fluorobenzyl)-7-hydroxy-1-[(2-propoxyethoxy)methyl]-3,7-dihydro-6H-pyrrolo[23-c]-17-naphthyridin-6-one [Example 89] | 10 nM | – | EC50 ([2]; RF strain of HIV-1, CEM-SS cells, XTT read-out after six days, read-out: EC50): 1 nM
C[C@H](CO)NCc1cn(Cc2ccc(F)cc2)c2cnc3c(c12)CCN(O)C3=O [Example 33, 3-(4-fluorobenzyl)-7-hydroxy-1-({[(1R)-2-hydroxy-1-methylethyl]amino}methyl)-3,7,8,9-tetrahydro-6H-pyrrolo[2,3-c]-1,7-naphthyridin-6-one] | 21 nM | 13 nM | –
O=C(NCc1ccc(F)cc1)c1nc(N2CCCCS2(=O)=O)c2cccnc2c1O [Example L-000870810] | – | – | clinical efficacy in the treatment of HIV-infected patients (HIV-1): showed clinical efficacy
O=C1c2ncc3c(c(CN4CCCCCC4)cn3Cc3ccc(F)cc3)c2CCN1O [Example 98, 1-(azepan-1-ylmethyl)-3-(4-fluorobenzyl)-7-hydroxy-3,7,8,9-tetrahydro-6H-pyrrolo[2,3-c]-1,7-naphthyridin-6-one] | 38 nM | 13 nM | –
CC(C)CN(C)Cc1cn(Cc2ccc(F)cc2)c2cnc3c(c12)CCN(O)C3=O [Example 123, 3-(4-fluorobenzyl)-7-hydroxy-1-{[isobutyl(methyl)amino]methyl}-3,7,8,9-tetrahydro-6H-pyrrolo[2,3-c]-1,7-naphthyridin-6-one] | 44 nM | 1.6 nM | –
CN(CCCc1cn(Cc2ccc(F)cc2)c2cnc3c(c12)CCN(O)C3=O)Cc1ccccn1 [Example 122, 3-(4-fluorobenzyl)-7-hydroxy-1-{3-[methyl(pyridin-2-ylmethyl)amino]propyl}-3,7,8,9-tetrahydro-6H-pyrrolo[2,3-c]-1,7-naphthyridin-6-one] | 26 nM | 5 nM | –
O=C1c2ncc3c(c(CCNCCC(F)(F)F)cn3Cc3ccc(F)cc3)c2CCN1O [Example 117, 3-(4-fluorobenzyl)-7-hydroxy-1-{2-[(3,3,3-trifluoropropyl)amino]ethyl}-3,7,8,9-tetrahydro-6H-pyrrolo[2,3-c]-1,7-naphthyridin-6-one] | 17 nM | 6 nM | –
CCOCCOCc1cn(Cc2ccc(F)cc2)c2cnc3c(c12)CCN(O)C3=O [Example 31, 1-[(2-ethoxyethoxy)methyl]-3-(4-fluorobenzyl)-7-hydroxy-3,7,8,9-tetrahydro-6H-pyrrolo[2,3-c]-1,7-naphthyridin-6-one] | 33 nM | 5 nM | –
